ChEMBL document CHEMBL2016453, “Design, synthesis and anticonvulsant activities of novel 1-(substituted/unsubstituted benzylidene)-4-(4-(6,8-dibromo-2-(methyl/phenyl)-4-oxoquinazolin-3(4H)-yl)phenyl) semicarbazide derivatives” (Bioorg Med Chem Lett, 2012)
Active and inactive are the calls of the source. The rule behind the calls is not given here.

Tests used:
Mus musculus [1] = assay: Anticonvulsant activity in ip dosed Swiss albino mouse assessed as protection against maximal electroshock-induced seizures after 0.5 hrs; format: functional; details: read-out: MED
Mus musculus [2] = assay: Anticonvulsant activity in ip dosed Swiss albino mouse assessed as protection against maximal electroshock-induced seizures after 4 hrs; format: functional; details: read-out: MED
Mus musculus [3] = assay: Anticonvulsant activity in ip dosed Swiss albino mouse assessed as protection against subcutaneous pentylenetetrazole-induced seizures after 0.5 hrs; format: functional; details: read-out: MED
Mus musculus [4] = assay: Anticonvulsant activity in ip dosed Swiss albino mouse assessed as protection against subcutaneous pentylenetetrazole-induced seizures after 4 hrs; format: functional; details: read-out: MED
Mus musculus [5] = assay: Neurotoxicity in Swiss albino mouse assessed as motor impairment at 300 mg/kg, ip after 0.5 hrs by rotorod test; format: toxicity, organism-based; parameters: dose 300 mg/kg, route intraperitoneal; details: in vivo
Mus musculus [6] = assay: Neurotoxicity in Swiss albino mouse assessed as motor impairment at 300 mg/kg, ip after 4 hrs by rotorod test; format: toxicity, organism-based; parameters: dose 300 mg/kg, route intraperitoneal; details: in vivo
Rattus norvegicus [7] = assay: Anticonvulsant activity in Wistar rat assessed as protection against maximal electroshock-induced seizures at 30 mg/kg, po after 0.25 hrs; format: functional
Rattus norvegicus [8] = assay: Anticonvulsant activity in Wistar rat assessed as protection against maximal electroshock-induced seizures at 30 mg/kg, po after 0.5 hrs; format: functional
Rattus norvegicus [9] = assay: Anticonvulsant activity in Wistar rat assessed as protection against maximal electroshock-induced seizures at 30 mg/kg, po after 1 hr; format: functional
Rattus norvegicus [10] = assay: Anticonvulsant activity in Wistar rat assessed as protection against maximal electroshock-induced seizures at 30 mg/kg, po after 2 hrs; format: functional
Rattus norvegicus [11] = assay: Anticonvulsant activity in Wistar rat assessed as protection against maximal electroshock-induced seizures at 30 mg/kg, po after 4 hrs; format: functional
Rattus norvegicus [12] = assay: Neurotoxicity in Wistar rat assessed as motor impairment at 30 mg/kg, po by rotorod test; format: toxicity, organism-based; parameters: dose 30 mg/kg, route oral; details: in vivo
Rattus norvegicus [13] = assay: Anticonvulsant activity in Wistar rat maximal electroshock-induced seizures model assessed as time spend in hind leg tonic extensor phase at 30 mg/kg, po after 0.25 hrs relative to control; format: functional
Rattus norvegicus [14] = assay: Anticonvulsant activity in Wistar rat maximal electroshock-induced seizures model assessed as time spend in hind leg tonic extensor phase at 30 mg/kg, po after 0.5 hrs relative to control; format: functional
Rattus norvegicus [15] = assay: Anticonvulsant activity in Wistar rat maximal electroshock-induced seizures model assessed as time spend in hind leg tonic extensor phase at 30 mg/kg, po after 1 hr relative to control; format: functional
Rattus norvegicus [16] = assay: Anticonvulsant activity in Wistar rat maximal electroshock-induced seizures model assessed as time spend in hind leg tonic extensor phase at 30 mg/kg, po after 2 hrs relative to control; format: functional
Rattus norvegicus [17] = assay: Anticonvulsant activity in Wistar rat maximal electroshock-induced seizures model assessed as time spend in hind leg tonic extensor phase at 30 mg/kg, po after 4 hrs relative to control; format: functional
Mus musculus [18] = assay: Anticonvulsant activity in Swiss albino mouse assessed as protection against subcutaneous pentylenetetrazole-induced seizures at 300 mg/kg, ip after 0.5 hrs; format: functional, organism-based; parameters: dose 300 mg/kg
Mus musculus [19] = assay: Anticonvulsant activity in Swiss albino mouse assessed as protection against subcutaneous pentylenetetrazole-induced seizures at 300 mg/kg, ip after 4 hrs; format: functional, organism-based; parameters: dose 300 mg/kg
[20] = Neurotoxicity in ip dosed Swiss albino mouse assessed as maximum tolerated dose after 0.5 hrs by rotorod test; format: toxicity, organism-based; details: in vivo
[21] = Neurotoxicity in ip dosed Swiss albino mouse assessed as maximum tolerated dose after 4 hrs by rotorod test; format: toxicity, organism-based; details: in vivo
Mus musculus [22] = assay: Anticonvulsant activity in Swiss albino mouse assessed as protection against maximal electroshock-induced seizures at 300 mg/kg, ip after 4 hrs; format: functional, organism-based; parameters: dose 300 mg/kg
Mus musculus [23] = assay: Anticonvulsant activity in Swiss albino mouse assessed as protection against maximal electroshock-induced seizures at 300 mg/kg, ip after 0.5 hrs; format: functional, organism-based; parameters: dose 300 mg/kg

SMILES	minimal effective dose (Mus musculus [1])	minimal effective dose (Mus musculus [2])	minimal effective dose (Mus musculus [3])	minimal effective dose (Mus musculus [4])	Activity (Mus musculus [5])	Activity (Mus musculus [6])	Activity (Rattus norvegicus [7])	Activity (Rattus norvegicus [8])	Activity (Rattus norvegicus [9])	Activity (Rattus norvegicus [10])	Activity (Rattus norvegicus [11])	Activity (Rattus norvegicus [12])	Time (Rattus norvegicus [13])	Time (Rattus norvegicus [14])	Time (Rattus norvegicus [15])	Time (Rattus norvegicus [16])	Time (Rattus norvegicus [17])	Activity (Mus musculus [18])	Activity (Mus musculus [19])	Activity (Mus musculus [22])	also measured
COc1cc(/C=N/NC(=O)Nc2ccc(-n3c(C)nc4c(Br)cc(Br)cc4c3=O)cc2)ccc1O	30 mg/kg	100 mg/kg	100 mg/kg	300 mg/kg	Non-toxic	Non-toxic	0%	50%	25%	0%	0%	Non-toxic	12.88 s	5.88 s	9.5 s	12.38 s	12.25 s				
O=C1NC(=O)C(c2ccccc2)(c2ccccc2)N1 [PHENYTOIN]	30 mg/kg	30 mg/kg					25%	100%	75%	75%	75%	Non-toxic	7.13 s	0 s	2.63 s	1.88 s	1.38 s	inactive	inactive		
CN(C)c1ccc(/C=N/NC(=O)Nc2ccc(-n3c(-c4ccccc4)nc4c(Br)cc(Br)cc4c3=O)cc2)cc1	100 mg/kg	300 mg/kg	100 mg/kg	300 mg/kg	Non-toxic	Non-toxic	0%	13%	38%	0%	0%	Non-toxic	12.75 s	10.75 s	7.5 s	11.63 s	11.88 s				
COc1cc(/C=N/NC(=O)Nc2ccc(-n3c(-c4ccccc4)nc4c(Br)cc(Br)cc4c3=O)cc2)ccc1O	100 mg/kg	300 mg/kg	300 mg/kg																inactive		MTD at 0.5 h [20]: 100 mg/kg; MTD at 4 h [21]: 300 mg/kg
Cc1nc2c(Br)cc(Br)cc2c(=O)n1-c1ccc(NC(=O)N/N=C/c2ccc(Cl)cc2)cc1	300 mg/kg																	inactive	inactive	inactive	
Cc1nc2c(Br)cc(Br)cc2c(=O)n1-c1ccc(NC(=O)N/N=C/c2ccc([N+](=O)[O-])cc2)cc1	100 mg/kg			300 mg/kg	Non-toxic													inactive		inactive	MTD at 4 h [21]: 300 mg/kg
O=C(N/N=C/c1ccccc1)Nc1ccc(-n2c(-c3ccccc3)nc3c(Br)cc(Br)cc3c2=O)cc1	100 mg/kg	300 mg/kg	300 mg/kg	300 mg/kg																	MTD at 0.5 h [20]: 100 mg/kg; MTD at 4 h [21]: 300 mg/kg
Cc1nc2c(Br)cc(Br)cc2c(=O)n1-c1ccc(NC(=O)N/N=C/c2ccc(O)cc2)cc1	30 mg/kg	30 mg/kg	100 mg/kg	300 mg/kg	Non-toxic	Non-toxic	25%	75%	88%	100%	100%	Non-toxic	6.63 s	2.38 s	1.25 s	0 s	0 s				
Cc1nc2c(Br)cc(Br)cc2c(=O)n1-c1ccc(NC(=O)N/N=C/c2ccccc2)cc1	100 mg/kg	300 mg/kg	300 mg/kg		Non-toxic	Non-toxic													inactive		
O=C(N/N=C/c1ccc(O)cc1)Nc1ccc(-n2c(-c3ccccc3)nc3c(Br)cc(Br)cc3c2=O)cc1	30 mg/kg	300 mg/kg	300 mg/kg	300 mg/kg	Non-toxic		0%	0%	0%	25%	50%	Non-toxic	12.5 s	12.38 s	12 s	9 s	6.5 s				MTD at 4 h [21]: 300 mg/kg
O=C(N/N=C/c1ccc([N+](=O)[O-])cc1)Nc1ccc(-n2c(-c3ccccc3)nc3c(Br)cc(Br)cc3c2=O)cc1			300 mg/kg																inactive	inactive	Activity (Mus musculus [23]): inactive
Cc1nc2c(Br)cc(Br)cc2c(=O)n1-c1ccc(NC(=O)N/N=C/c2ccc(N(C)C)cc2)cc1	30 mg/kg	30 mg/kg	100 mg/kg	300 mg/kg			25%	75%	88%	100%	100%	Non-toxic	8.38 s	2.88 s	1.38 s	0 s	0 s				MTD at 0.5 h [20]: 300 mg/kg; MTD at 4 h [21]: 300 mg/kg
CCC1(C)CC(=O)NC1=O (configuration not stated) [ETHOSUXIMIDE]			100 mg/kg	300 mg/kg	Non-toxic	Non-toxic														inactive	Activity (Mus musculus [23]): inactive
O=C(N/N=C/c1ccc(Cl)cc1)Nc1ccc(-n2c(-c3ccccc3)nc3c(Br)cc(Br)cc3c2=O)cc1																		inactive	inactive	inactive	Activity (Mus musculus [23]): inactive
O=C(N/N=C/c1cccc([N+](=O)[O-])c1)Nc1ccc(-n2c(-c3ccccc3)nc3c(Br)cc(Br)cc3c2=O)cc1				300 mg/kg														inactive		inactive	Activity (Mus musculus [23]): inactive
Cc1nc2c(Br)cc(Br)cc2c(=O)n1-c1ccc(NC(=O)N/N=C/c2cccc([N+](=O)[O-])c2)cc1	100 mg/kg	300 mg/kg	300 mg/kg			Non-toxic													inactive		MTD at 0.5 h [20]: 300 mg/kg
